Tests used:
[1] = Maximum concentration was determined in rat by iv/po dose at 30 mg/kg; type: ADME, organism-based; set-up: dose 30 mg/kg; conditions: in vivo
[2] = target: T1, Platelet-derived growth factor receptor beta (Homo sapiens, UniProt P09619); test: In vitro inhibition of Platelet derived growth factor receptor beta autophosphorylation in MG-63 cells with 45% human plasma; type: cell-based
[3] = Inhibition of PDGFR-beta/c-Kit chimeric receptor autophosphorylation in CHO cells; type: cell-based
[4] = Percent bioavailability was determined in dog by iv/po dose at 8.69 mg/kg; type: ADME, organism-based, Canis lupus familiaris; conditions: in vivo
[5] = Plasma half life was determined in rat by iv/po dose at 30 mg/kg; type: ADME, organism-based; set-up: dose 30 mg/kg
[6] = target: T1, Platelet-derived growth factor receptor beta; test: In vitro inhibition of Platelet derived growth factor receptor beta autophosphorylation in MG-63 cells without plasma; type: cell-based
[7] = Maximum concentration was determined in monkey by iv/po dose at 10 mg/kg; type: ADME, organism-based; set-up: dose 10 mg/kg; conditions: cercopithecidae, in vivo
[8] = Inhibition of PDGFR-beta/Flt-3 chimeric receptor autophosphorylation in CHO cells; type: cell-based
[9] = target: T1, Platelet-derived growth factor receptor beta; test: Inhibition of Platelet derived growth factor receptor beta autophosphorylation in CHO cells; type: cell-based
[10] = Plasma half life was determined in monkey by iv/po dose at 10 mg/kg; type: ADME, organism-based; set-up: dose 10 mg/kg; conditions: cercopithecidae
[11] = Bioavailability in rat (dose 30 mg/kg i.v./p.o.); type: ADME, organism-based; conditions: in vivo, po
[12] = Maximum concentration was determined in dog by iv/po dose at 8.69 mg/kg; type: ADME, organism-based, Canis lupus familiaris; set-up: dose 8.69 mg/kg; conditions: in vivo
[13] = Area under curve was determined in rat by peroral dose at 30 mg/kg; type: ADME, organism-based; set-up: dose 30 mg/kg, route oral; conditions: in vivo, po
[14] = Plasma half life was determined in dog by iv/po dose at 8.69 mg/kg; type: ADME, organism-based, Canis lupus familiaris; set-up: dose 8.69 mg/kg
[15] = Area under curve was determined in rat by peroral dose at 10 mg/kg; type: ADME, organism-based; set-up: dose 10 mg/kg, route oral; conditions: in vivo, po
[16] = Area under curve was determined in dog by peroral dose at 5 mg/kg; type: ADME, organism-based, Canis lupus familiaris; set-up: dose 5 mg/kg, route oral; conditions: in vivo, po
[17] = Percent bioavailability was determined in monkey by iv/po dose at 10 mg/kg; type: ADME, organism-based; conditions: cercopithecidae, in vivo
[18] = Plasma half life was determined in dog by iv/po dose at 5 mg/kg; type: ADME, organism-based, Canis lupus familiaris; set-up: dose 5 mg/kg
[19] = Plasma half life was determined in rat by iv/po dose at 10 mg/kg; type: ADME, organism-based; set-up: dose 10 mg/kg
[20] = Percent bioavailability was determined in rat by iv/po dose at 10 mg/kg; type: ADME, organism-based; conditions: in vivo
[21] = Maximum concentration was determined in rat by iv/po dose at 10 mg/kg; type: ADME, organism-based; set-up: dose 10 mg/kg; conditions: in vivo
[22] = Maximum concentration was determined in dog by iv/po dose at 5 mg/kg; type: ADME, organism-based, Canis lupus familiaris; set-up: dose 5 mg/kg; conditions: in vivo
[23] = Percent bioavailability was determined in dog by iv/po dose at 5 mg/kg; type: ADME, organism-based, Canis lupus familiaris; conditions: in vivo

T1 sequence (P09619 whole entry): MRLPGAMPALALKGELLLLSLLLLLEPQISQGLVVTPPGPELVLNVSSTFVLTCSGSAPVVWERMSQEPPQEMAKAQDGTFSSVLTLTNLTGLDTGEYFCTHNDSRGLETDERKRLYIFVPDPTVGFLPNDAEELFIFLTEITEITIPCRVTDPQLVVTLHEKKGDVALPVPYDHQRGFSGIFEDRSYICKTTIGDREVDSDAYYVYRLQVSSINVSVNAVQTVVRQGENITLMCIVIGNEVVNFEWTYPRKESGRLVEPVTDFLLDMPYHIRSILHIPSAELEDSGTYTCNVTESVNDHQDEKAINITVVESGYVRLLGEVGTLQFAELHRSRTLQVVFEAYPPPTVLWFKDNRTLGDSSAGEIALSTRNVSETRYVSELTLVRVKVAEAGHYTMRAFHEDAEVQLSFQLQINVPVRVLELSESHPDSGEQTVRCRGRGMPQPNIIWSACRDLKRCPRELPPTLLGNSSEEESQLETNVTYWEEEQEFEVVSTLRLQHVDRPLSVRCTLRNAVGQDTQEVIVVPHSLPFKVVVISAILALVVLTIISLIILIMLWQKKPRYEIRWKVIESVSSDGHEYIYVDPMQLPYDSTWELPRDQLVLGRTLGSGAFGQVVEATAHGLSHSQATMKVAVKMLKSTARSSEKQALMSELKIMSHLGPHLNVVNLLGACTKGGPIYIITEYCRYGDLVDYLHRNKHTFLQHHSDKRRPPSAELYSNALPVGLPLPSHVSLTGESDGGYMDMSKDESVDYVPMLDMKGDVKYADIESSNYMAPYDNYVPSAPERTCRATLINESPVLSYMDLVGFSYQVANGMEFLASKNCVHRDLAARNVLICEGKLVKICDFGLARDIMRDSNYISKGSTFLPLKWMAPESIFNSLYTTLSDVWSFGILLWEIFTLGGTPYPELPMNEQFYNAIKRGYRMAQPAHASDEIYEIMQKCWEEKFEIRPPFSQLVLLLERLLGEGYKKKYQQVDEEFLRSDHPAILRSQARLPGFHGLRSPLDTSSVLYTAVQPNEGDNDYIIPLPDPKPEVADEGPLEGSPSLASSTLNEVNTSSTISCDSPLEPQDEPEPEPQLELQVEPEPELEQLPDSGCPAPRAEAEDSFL

## COc1cc2c(N3CCN(C(=S)NCc4cnc(C)cn4)CC3)ncnc2cc1OCCN1CCCCC1
[1]
  Cmax: 239 ng/mL
[2]
  IC50: 60 nM
[3]
  IC50: 890 nM
[4]
  bioavailability: 38.8%
[5]
  half-life: 14.1 h
[6]
  IC50: 50 nM
[7]
  Cmax: 235 ng/mL
[8]
  IC50: > 30000 nM
[9]
  IC50: 250 nM
[10]
  half-life: 20.9 h
[11]
  bioavailability: 13.7%
[12]
  Cmax: 297 ng/mL
[13]
  AUC: 32.2 µg/h/mL
[14]
  half-life: 10.8 h

## COc1cc2c(N3CCN(/C(S)=N\c4ccc(-c5ccccn5)cc4)CC3)ncnc2cc1OCCN1CCCCC1
[15]
  AUC: 26.9 µg/h/mL
[16]
  AUC: 333 ng·h/mL
[2]
  IC50: 150 nM
[3]
  IC50: 100 nM
[17]
  bioavailability: 68%
[18]
  half-life: 7.58 h
[6]
  IC50: 180 nM
[19]
  half-life: 17.4 h
[7]
  Cmax: 143 ng/mL
[8]
  IC50: 3190 nM
[9]
  IC50: 70 nM
[10]
  half-life: 8.46 h
[20]
  bioavailability: 8.82%
[21]
  Cmax: 34.1 ng/mL
[22]
  Cmax: 38.9 ng/mL
[23]
  bioavailability: 30.2%

Reference: ChEMBL document CHEMBL1137869 (Bioorg Med Chem Lett, 2004)
